Data published in publication PMC8844424, “Optimization, purification and characterization of laccase from Ganoderma leucocontextum along with its phylogenetic relationship” (Scientific Reports, 2022).

System: Glacc110 (purified laccase of G. leucocontextum)
Assay: spectrophotometric oxidation assay at […] nm, Lineweaver-Burk plot
Type: biochemical, Ganoderma leucocontextum
Conditions: 1-10 mM guaiacol, 100 mM citrate-phosphate buffer, pH 3.0; temperature not stated for kinetics

## COc1ccccc1O [guaiacol]
  Km: 1660 µM
